According to the NIST ThermoML archive (doi:10.1021/je800664z):
Numbers after ± are expanded uncertainties.

Key:
[1] = for surface tension liquid-gas: Capillary rise; for mass density / viscosity: 101 kPa, Liquid
[2] = refractive index (Na D-line) (dimensionless); settings: 101.33 kPa, Liquid, Standard Abbe refractometry
[3] = refractive index (Na D-line) (dimensionless); xn = mol fraction of the nth substance listed; settings: 101 kPa, Liquid, Standard Abbe refractometry, x2 = 0
[4] = xn = mol fraction of the nth substance listed; settings: x2 = 0; for surface tension liquid-gas: Capillary rise; for mass density / viscosity: 101 kPa, Liquid

C1COCO1 [1,3-dioxolane]
Settings | mass density, [1] [kg/m3] | refractive index, [2] | surface tension liquid-gas, [1] [mN/m] | viscosity, [1] [mPa·s]
288.15 K | 1071.24 ± 0.29 | 1.40252 ± 0.00033 | 34.37 ± 0.15 | 0.667 ± 0.013
298.15 K | 1059.29 ± 0.27 | 1.39795 ± 0.00033 | 32.55 ± 0.15 | 0.596 ± 0.012
308.15 K | 1046.85 ± 0.25 | 1.39322 ± 0.00033 | 30.67 ± 0.14 | 0.535 ± 0.011

CC(C)CC(C)(C)C [2,2,4-trimethylpentane]
Settings | mass density, [1] [kg/m3] | refractive index, [2] | surface tension liquid-gas, [1] [mN/m] | viscosity, [1] [mPa·s]
288.15 K | 696.1 ± 0.61 | 1.39408 ± 0.00032 | 19.18 ± 0.12 | 0.537 ± 0.011
298.15 K | 687.95 ± 0.62 | 1.38916 ± 0.00032 | 18.33 ± 0.12 | 0.481 ± 0.011
308.15 K | 679.62 ± 0.63 | 1.38497 ± 0.00032 | 17.35 ± 0.12 | 0.434 ± 0.01

CC(C)CC(C)(C)C [2,2,4-trimethylpentane] + C1COCO1
Settings | mass density, [4] [kg/m3] | refractive index, [3] | surface tension liquid-gas, [4] [mN/m] | viscosity, [4] [mPa·s]
288.15 K | 696.1 ± 0.61 | 1.39408 ± 0.00032 | 19.18 ± 0.12 | 0.537 ± 0.011
298.15 K | 687.95 ± 0.62 | 1.38916 ± 0.00032 | 18.33 ± 0.12 | 0.481 ± 0.011
308.15 K | 679.62 ± 0.63 | 1.38497 ± 0.00032 | 17.35 ± 0.12 | 0.434 ± 0.01

CC(C)O [propan-2-ol]
Settings | mass density, [1] [kg/m3] | refractive index, [2] | surface tension liquid-gas, [1] [mN/m] | viscosity, [1] [mPa·s]
288.15 K | 789.53 ± 0.48 | 1.37933 ± 0.00033 | 21.75 ± 0.13 | 2.849 ± 0.046
298.15 K | 781.16 ± 0.5 | 1.37515 ± 0.00033 | 20.9 ± 0.13 | 2.043 ± 0.033
308.15 K | 772.52 ± 0.51 | 1.37061 ± 0.00033 | 20.17 ± 0.13 | 1.541 ± 0.025

CC(C)O [propan-2-ol] + C1COCO1
Settings | mass density, [4] [kg/m3] | refractive index, [3] | surface tension liquid-gas, [4] [mN/m] | viscosity, [4] [mPa·s]
288.15 K | 789.53 ± 0.48 | 1.37933 ± 0.00033 | 21.75 ± 0.13 | 2.849 ± 0.046
298.15 K | 781.16 ± 0.5 | 1.37515 ± 0.00033 | 20.9 ± 0.13 | 2.043 ± 0.033
308.15 K | 772.52 ± 0.51 | 1.37061 ± 0.00033 | 20.17 ± 0.13 | 1.541 ± 0.025
